Here are results for 88 compounds from PubChem BioAssay AID1288 (Columbia University Molecular Screening Center, 2008).

This assay in a line: inhibitors of TNFa-induced E-selectin expression, confirmation, imaging, retest plus dose response, cell count (AID 1288).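 Further: 0% = stimulated vehicle wells and 100% = unstimulated vehicle wells.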 To be noted: human endothelial cells, TNFa-induced E-selectin, imaging; at 2 µM; hits give high values.

Activity calls are given as the source filed them. How the calls were made is not given here.

Regarding `COCCN1C(=O)N(c2cccc(C)c2)C(=O)C1CC(=O)Nc1ccc(F)cc1` (stereo not drawn), the inhibition (commonly the change of the read-out against control, counted positive when it falls) was 12% (inactive).
For the compound `O=C(Nc1ccc(Cl)cc1)c1cc2nc(-c3ccco3)cc(C(F)(F)F)n2n1`, the inhibition was 14.3% (inactive).
`CN(C)c1ccc(NC(=S)NC(=O)/C=C/c2ccc(Cl)cc2)cc1`: the inhibition was 2.61% (inactive).
As for `CCOC(=O)c1ccccc1NC(=O)c1ccc(N(C)S(C)(=O)=O)cc1`, the inhibition is 15.2% (inactive).
On to `CCOC(=O)c1c(NC(=O)CSc2nnc(-c3ccccc3)n2CC)sc(C(C)=O)c1C`, for which the inhibition is 8.92% (inactive).
Consider `Cc1noc(C)c1S(=O)(=O)Nc1ccc(C(=O)NC2CCCCC2C)cc1` (stereo not drawn), for which the inhibition is 22.8% (inactive).
As for `Cc1ccc(C)c(N(CC(=O)NCCSCc2ccco2)S(C)(=O)=O)c1`, the inhibition was 6.59% (inactive).
Regarding `CCS(=O)(=O)N1CCCC(C(=O)NCc2cccc(OC)c2)C1` (stereo not drawn), the inhibition was 12.7% (inactive).
The result for `Cc1cc(=O)[nH]c(SCC(=O)NCc2ccco2)n1` reads 5.37% (inactive).
With `Cc1ccc(C(=O)c2c(NC(=O)c3ccccc3C)sc(C)c2C)cc1`, the inhibition is 4.34% (inactive).
`CN(Cc1ccccc1)C(=S)NC(=O)C1CCCCC1`: the inhibition was 8.28% (inactive).
On to `C=CCc1cccc(/C=N/NC(=O)CCCNc2ccc(C)cc2)c1O`, for which the inhibition was 11.2% (inactive).
Regarding `Cc1ccccc1OCCCC(=O)Nc1ccc(N2CCOCC2)cc1`, the inhibition was 4.18% (inactive).
The result for `CCOC(=O)C1CCCN(c2ncnc3c2cnn3-c2ccc(Cl)cc2)C1` (stereo not drawn) reads 38.5% (inactive).
On to `O=Cc1ccc(OCc2ccccn2)cc1`, for which the inhibition was 15.8% (inactive).
As to `COc1ccc(OCC2CNC(=O)O2)cc1` (stereo not drawn), the inhibition was 0.97% (inactive).
Consider `Cc1sc(NC(=O)c2ccco2)c(CN2CCN(c3ccccn3)CC2)c1C`, for which the inhibition was 24.4% (inactive).
The result for `COc1ccccc1NC(=O)CSc1nnc2ccc(-c3cccnc3)nn12` reads -0.72% (inactive).
Under `Cc1ccc2cc3c(NC(=O)C(C)C)nn(C)c3nc2c1` stands 9.56% (inactive); under `O=c1c2cccnc2[nH]c(=S)n1CCCN1CCN(c2ccc(F)cc2)CC1`, 1.58% (inactive).
Under `CC(C)C(c1nnnn1Cc1ccc2c(c1)OCO2)N1CCN(C)CC1` (stereo not drawn) stands 6.53% (inactive); under `CC(C)(C)NC(=O)NC(=O)CSc1ncn[nH]1`, 6.43% (inactive); under `O=S(=O)(NCC(c1ccco1)N1CCN(c2ccccc2)CC1)c1ccc(F)cc1` (stereo not drawn), 6.17% (inactive).
`Cc1ccc(/C=C/C(=O)O)cc1S(=O)(=O)NCCO`: the inhibition is 1.34% (inactive).
As to `CCOC(=O)N1CCC(N2CCN(S(=O)(=O)c3ccc(NC(C)=O)cc3)CC2)CC1`, the inhibition is 5.13% (inactive).
On to `COc1ccccc1CC1(C)NC(=O)N(CC(=O)N2CC(C)OC(C)C2)C1=O` (stereo not drawn), for which the inhibition was 9.89% (inactive).
Turning to `CSc1cccc(NC(=O)C2CCCN(S(=O)(=O)c3ccc(F)cc3)C2)c1` (stereo not drawn), the inhibition is 35.8% (inactive).
On to `Cc1cc(C(=O)CN2C(=O)CCC2=O)c(C)n1Cc1ccccc1`, for which the inhibition is 13.3% (inactive).
Under `COc1ccc(C(=O)/C=C/c2ccc(F)cc2)c(OC(=O)c2ccc([N+](=O)[O-])cc2)c1` stands 5.11% (inactive).
Under `CCOc1ccc(N2CC(C(=O)NCCCN3CCOCC3)CC2=O)cc1` (stereo not drawn) stands 11.2% (inactive); under `O=C(Nc1nc(-c2ccncc2)cs1)c1ccc(S(=O)(=O)N2CCOCC2)cc1`, 1.3% (inactive); under `CCCCCCOC(=O)C1=C(C)NC(=O)NC1c1ccc(O)cc1` (stereo not drawn), 13.9% (inactive).
As for `C/C(=N\NC(=O)CC1N=C(Cc2ccccc2)NNC1=O)c1ccc(C)cc1` (stereo not drawn), the inhibition is 3.58% (inactive).
Take `COCCCNC(=O)CN1C(=O)c2ccccc2C1=O`: the inhibition was 5.47% (inactive).
Under `CCS(=O)(=O)c1ccc2oc(Nc3ccc(C(C)C)cc3)nc2c1` stands 4.39% (inactive); under `Cc1ccccc1-n1ccnc1SCC(=O)O`, 23% (inactive).
For the compound `COc1ccc(C(=O)C(CN2CCOCC2)c2ccccc2)cc1F` (stereo not drawn), the inhibition is 0.43% (inactive).
As to `CCn1cc(C(=O)O)c(=O)c2cc(F)c(N3CCN(C(=S)NC(=O)c4ccc(Br)cc4)CC3)cc21`, the inhibition is 7.45% (inactive).
Under `O=S(=O)(c1ccccc1)N1CCN(CC(O)COc2ccc3c(c2)CCC3)CC1` (stereo not drawn) stands 4.13% (inactive); under `Cc1ccc(Cc2cnc(NC(=O)/C(C#N)=C/c3ccc(-c4ccccc4[N+](=O)[O-])o3)s2)cc1`, 5.26% (inactive); under `Cc1cccc(OCCCC(=O)O)c1`, 4.01% (inactive).
With `NC(=O)c1ccc(-c2ccc(Br)cc2)o1`, the inhibition was 36.5% (inactive).
For `COc1ccc(S(=O)(=O)Nc2ccc(C)cc2)cc1N(C)S(=O)(=O)c1ccc(Cl)cc1`, the inhibition was 3.82% (inactive).
For `Cc1cc(C)cc(NC(=S)NC2CC3CCCC(C2)N3C2CC2)c1` (stereo not drawn), the inhibition is 0.55% (inactive).
The result for `Cc1nc(SCC(N)=O)c([N+](=O)[O-])[nH]1` reads 9.44% (inactive); that for `O=c1cc(CO)oc(C(Nc2ccccn2)c2ccccc2F)c1O` (stereo not drawn), 13.7% (inactive).
With `CCOC(=O)c1cnc2ccc(C)cc2c1Nc1ccc(N2CCOCC2)cc1`, the inhibition was 5.86% (inactive).
For the compound `COc1cccc(N2CC(C(=O)Nc3nnc(SCC(=O)c4ccccc4)s3)CC2=O)c1` (stereo not drawn), the inhibition was 9.31% (inactive).
In the case of `CCn1c(SCC(=O)Nc2ccccc2OC)nnc1-c1cnccn1`, the inhibition was 6.59% (inactive).
`CCCCOc1ccc(/C=C/C(=O)OCC(=O)NC(=O)NCC(C)C)cc1OCC`: the inhibition was 15.1% (inactive).
For the compound `O=c1ccc2ccc(OCc3nnc(-c4ccccc4Br)o3)cc2o1`, the inhibition was 2.48% (inactive).
As for `Cc1cc(C)n2nc(C(=O)N(C)C(c3ccccc3)c3ccccc3)nc2n1`, the inhibition is 7.77% (inactive).
As to `CC(C)(C)c1ccc(OCCCNCc2ccccc2)cc1`, the inhibition was -6.22% (inactive).
Consider `COc1ccc(-n2c(SCC(=O)NCc3ccco3)nc3c([nH]c4ccccc43)c2=O)cc1`, for which the inhibition was 1.34% (inactive).
`O=C(Nc1cccs1)Nc1c(F)c(F)c(F)c(F)c1F`: the inhibition is 1.63% (inactive).
In the case of `CC1CC(Nc2ccccc2)=CC(=O)O1` (stereo not drawn), the inhibition is -4.3% (inactive).
Regarding `COc1ccc(N(CC(=O)Nc2ccc3c(c2)OCO3)S(C)(=O)=O)c(OC)c1`, the inhibition was -1.1% (inactive).
Under `O=C(/C=C/c1ccc(F)cc1)NC(=S)Nc1ccccc1C(=O)NC1CCCCC1` stands 2.9% (inactive); under `COc1ccc(C(=O)C2(C)N(O)C(C)C(c3cccs3)=[N+]2[O-])cc1` (stereo not drawn), 9.94% (inactive).
Take `CCC(Sc1nc2c(c(=O)n1CC)SC(C)C2)C(=O)OC` (stereo not drawn): the inhibition was 6.81% (inactive).
The result for `O=C(c1cnccn1)N1CCN(c2ccccc2)CC1` reads 30.4% (inactive).
In the case of `CCCn1c(CN2CCN(c3cccc(Cl)c3)CC2)nc2c1c(=O)n(C)c(=O)n2C`, the inhibition was 7.73% (inactive).
Turning to `COc1ccccc1N(Cc1ccccc1)S(=O)(=O)c1cccc(C(=O)Nc2ccc(C(C)=O)cc2)c1`, the inhibition is 14.8% (inactive).
In the case of `Cn1nnnc1SCc1nnc(-c2ccc(Cl)cc2)o1`, the inhibition is 6.53% (inactive).
With `Cc1ccc(C(=O)Nc2ccc(O)cc2C(=O)O)cc1`, the inhibition is 3% (inactive).
The result for `CCOC(=O)N1CCN(C(=O)COc2cccc3c2CCN(Cc2cccc(C)c2)C3=O)CC1` reads 8.76% (inactive).
Take `CCCc1[nH]nc2c1C(c1ccc(O)c(OC)c1)C(C#N)=C(N)O2` (stereo not drawn): the inhibition is 16.6% (inactive).
For the compound `O=C(CCc1ccccc1)NCCC1=CCCCC1`, the inhibition was 6.52% (inactive).
Regarding `CC(C)CCNC(=O)C1CCN(c2nc3ccccc3o2)CC1`, the inhibition was 12.3% (inactive).
Under `Cn1cccc1/C=C1\C(=O)NC(=O)N(CCC2=CCCCC2)C1=O` stands 6.01% (inactive).
As for `COc1ccc(S(=O)(=O)N(CC(N)=O)C2CCCCC2)cc1Cl`, the inhibition is 5.95% (inactive).
`COc1ccc(-n2nc([N+](=O)[O-])c(=NCCc3ccc(Cl)cc3)n2O)cc1`: the inhibition was 6.09% (inactive).
Under `Clc1ccc(-c2nnc(-c3ccco3)o2)cc1` stands 6.81% (inactive); under `CN1CCN(S(=O)(=O)c2ccc(NC(=O)C3CCCO3)cc2)CC1` (stereo not drawn), 13.2% (inactive); under `COc1ccc(NC(=O)c2cc(-c3ccc(OC)c(OC)c3)on2)cc1OC`, 9.77% (inactive).
Turning to `COCCOC(=O)c1c(NC(=O)CN2CCOCC2)sc(C(N)=O)c1C`, the inhibition is 16.3% (inactive).
`Cc1ccc(-c2cc(NC(=O)CCl)n(-c3ccccc3)n2)cc1`: the inhibition is -2.61% (inactive).
The result for `Cc1cc(NC(=O)CSc2nnc3c4c(C)c(C)sc4ncn23)no1` reads 14.7% (inactive); that for `COc1cc(S(=O)(=O)NC2CCCCC2C)ccc1Cl` (stereo not drawn), 9.69% (inactive); that for `CCS(=O)(=O)NCC(c1ccco1)N1CCN(c2ccccc2)CC1` (stereo not drawn), 0.44% (inactive).
On to `CSc1nc(=O)n2cc(C)ccc2n1`, for which the inhibition was 1.88% (inactive).
Turning to `Cc1cccc(NC(=O)CCSc2nc(C)cc(C)n2)c1`, the inhibition is 4.57% (inactive).
For `COc1cc(C(=O)OCCNC(=O)c2ccncc2)cc(OC)c1OC`, the inhibition was 9.29% (inactive).
As to `O=C(Nc1ccc(F)cc1)N1CCOCC1`, the inhibition is 29.5% (inactive).
The result for `COc1cc(S(=O)(=O)N(Cc2ccccn2)Cc2ccco2)ccc1-n1cnnn1` reads 2% (inactive); that for `O=C(CCc1ccccc1)Nc1ncc2c(n1)CCCC2=O`, 14.5% (inactive); that for `CCOc1ccc(NC(=O)COC(=O)C23CC4CC(CC(C4)C2)C3)c([N+](=O)[O-])c1`, 1.77% (inactive).
Under `CC(=O)Oc1cccc(N2C(=O)C3CC=C(Cl)CC3C2=O)c1` (stereo not drawn) stands 31.6% (inactive).
